According to patent US6653334B1, “Benzoxazole compound and pharmaceutical composition containing the same” (Kowa Co., Ltd., priority 2002, dated 2003):

Assays:
Assay type in all cases: cell-based
hPPARα = biological target: T1, hPPARα (Homo sapiens, UniProt Q07869); assay: PPAR transfection (luciferase reporter) assay in COS cells, hPPARα; settings: agonist activity, transiently transfected COS cells, 16 hours incubation; read-out: hPPAR; EC50 α
T1 construct: expressed in transfected cells; host or cells: COS cells (Cercopithecus aethiops kidney)
T1 sequence (Q07869 1-468): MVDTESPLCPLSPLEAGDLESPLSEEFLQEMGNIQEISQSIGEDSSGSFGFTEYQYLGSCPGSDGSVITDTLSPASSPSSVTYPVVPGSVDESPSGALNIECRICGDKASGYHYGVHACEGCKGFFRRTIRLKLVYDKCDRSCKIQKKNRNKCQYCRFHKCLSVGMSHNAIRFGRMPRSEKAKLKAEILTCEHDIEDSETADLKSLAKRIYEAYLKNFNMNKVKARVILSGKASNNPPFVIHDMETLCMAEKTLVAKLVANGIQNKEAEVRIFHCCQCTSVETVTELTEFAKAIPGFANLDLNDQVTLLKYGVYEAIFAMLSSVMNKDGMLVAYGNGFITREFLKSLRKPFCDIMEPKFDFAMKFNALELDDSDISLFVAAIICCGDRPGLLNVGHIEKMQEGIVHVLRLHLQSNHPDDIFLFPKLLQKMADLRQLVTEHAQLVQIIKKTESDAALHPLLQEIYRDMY

hPPARδ = biological target: T2, hPPARδ (Homo sapiens, UniProt Q03181); assay: PPAR transfection (luciferase reporter) assay in COS cells, hPPARδ; settings: agonist activity, transiently transfected COS cells, 16 hours incubation; read-out: hPPAR; EC50 δ
T2 construct: expressed in transfected cells; host or cells: COS cells (Cercopithecus aethiops kidney)
T2 sequence (Q03181 1-441): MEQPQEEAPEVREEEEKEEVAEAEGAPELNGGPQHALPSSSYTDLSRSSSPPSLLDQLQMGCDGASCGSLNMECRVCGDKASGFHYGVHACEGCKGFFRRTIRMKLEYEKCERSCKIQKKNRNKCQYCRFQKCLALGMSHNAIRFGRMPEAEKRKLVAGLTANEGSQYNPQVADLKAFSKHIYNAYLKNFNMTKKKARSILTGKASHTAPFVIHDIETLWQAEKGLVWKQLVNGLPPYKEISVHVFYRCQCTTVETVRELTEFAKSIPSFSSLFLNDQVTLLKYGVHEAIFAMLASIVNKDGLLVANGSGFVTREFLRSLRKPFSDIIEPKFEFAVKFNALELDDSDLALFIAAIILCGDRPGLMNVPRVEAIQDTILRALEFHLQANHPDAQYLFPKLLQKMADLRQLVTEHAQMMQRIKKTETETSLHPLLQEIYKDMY

hPPARγ = biological target: T3, hPPARγ (Homo sapiens, UniProt P37231); assay: PPAR transfection (luciferase reporter) assay in COS cells, hPPARγ; settings: agonist activity, transiently transfected COS cells, 16 hours incubation; read-out: hPPAR; EC50 γ
T3 construct: expressed in transfected cells; host or cells: COS cells (Cercopithecus aethiops kidney)
T3 sequence (P37231 1-505): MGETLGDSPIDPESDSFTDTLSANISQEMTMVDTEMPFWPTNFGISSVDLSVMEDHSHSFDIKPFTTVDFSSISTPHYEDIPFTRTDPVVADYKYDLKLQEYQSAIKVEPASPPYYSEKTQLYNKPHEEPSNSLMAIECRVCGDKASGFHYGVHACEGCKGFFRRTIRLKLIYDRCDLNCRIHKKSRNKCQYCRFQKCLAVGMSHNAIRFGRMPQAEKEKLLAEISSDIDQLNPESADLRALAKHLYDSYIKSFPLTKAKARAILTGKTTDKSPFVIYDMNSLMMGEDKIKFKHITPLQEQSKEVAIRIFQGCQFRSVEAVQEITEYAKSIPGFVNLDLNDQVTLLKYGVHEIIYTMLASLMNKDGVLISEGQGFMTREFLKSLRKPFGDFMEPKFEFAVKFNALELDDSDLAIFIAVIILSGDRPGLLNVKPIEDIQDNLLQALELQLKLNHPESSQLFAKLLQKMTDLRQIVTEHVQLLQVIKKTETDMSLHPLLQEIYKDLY

SMILES: CCCCCCCCN(Cc1cccc(OCC(=O)O)c1)c1nc2ccccc2o1 [Example 48, 3-[[N-(Benzoxazol-2-yl)-N-n-octyl]aminomethyl]phenoxyacetic Acid]
- EC50 (hPPARα): 10 nM
- EC50 (hPPARδ): 4.5 µM
- EC50 (hPPARγ): 700 nM

SMILES: CCCN(Cc1cccc(OC(C)C(=O)O)c1)c1nc2ccccc2o1 (stereo not drawn) [Example 74, 2-[3-[[N-(Benzoxazol-2-yl)-N-n-propyl]aminomethyl]phenoxy]propionic Acid]
- EC50 (hPPARα): 100 nM
- EC50 (hPPARδ): > 10 µM
- EC50 (hPPARγ): > 10000 nM

SMILES: CC(C)(Oc1ccc(CN(Cc2cccc3ccccc23)c2nc3ccccc3o2)cc1)C(=O)O [Example 12, 2-[4-[[N-(Benzoxazol-2-yl)-N-(naphth-1-ylmethyl)]aminomethyl]phenoxy]-2-methylpropionic Acid]
- EC50 (hPPARα): 3 nM
- EC50 (hPPARδ): 0.5 µM
- EC50 (hPPARγ): 100 nM

SMILES: CCCCCCCCN(Cc1cccc(OC(C)(C)C(=O)O)c1)c1nc2ccccc2o1 [Example 6, 2-[3-[[N-(Benzoxazol-2-yl)-N-n-octyl]aminomethyl]phenoxy]-2-methylpropionic Acid]
- EC50 (hPPARα): 10 nM
- EC50 (hPPARδ): > 10 µM
- EC50 (hPPARγ): 200 nM

SMILES: CC(Oc1cccc(CN(CCCc2ccccc2)c2nc3ccccc3o2)c1)C(=O)O (stereo not drawn) [Example 70, 2-[3-[[N-(Benzoxazol-2-yl)-N-(3-phenylpropyl)]aminomethyl]phenoxy]propionic Acid]
- EC50 (hPPARα): 1 nM
- EC50 (hPPARδ): > 10 µM
- EC50 (hPPARγ): 400 nM

SMILES: CCN(CCCc1ccc(OC(C)(C)C(=O)O)cc1)c1nc2ccccc2o1 [Example 114, 2-[4-[3-[N-(Benzoxazol-2-yl)-N-ethyl]aminopropyl]phenoxy]-2-methylpropionic Acid]
- EC50 (hPPARα): 10 nM
- EC50 (hPPARδ): > 10 µM
- EC50 (hPPARγ): 400 nM

SMILES: CCC(Oc1cccc(CN(CCCc2ccc(Cl)cc2)c2nc3ccccc3o2)c1)C(=O)O (stereo not drawn) [Example 56, 2-[3-[[N-(Benzoxazol-2-yl)-N-(3-(4-chlorophenyl)propyl)]aminomethyl]phenoxy]butyric Acid]
- EC50 (hPPARα): 1 nM
- EC50 (hPPARδ): 1 µM
- EC50 (hPPARγ): 100 nM

SMILES: CC#CCN(CCCc1cccc(OC(C)(C)C(=O)O)c1)c1nc2ccccc2o1 [Example 121, 2-[3-[3-[N-(Benzoxazol-2-yl)-N-(2-butynyl)]aminopropyl]phenoxy]-2-methylpropionic Acid]
- EC50 (hPPARα): 4 nM
- EC50 (hPPARδ): > 10 µM
- EC50 (hPPARγ): 100 nM

SMILES: CC(Oc1cccc(CN(CCCc2ccc(Cl)cc2)c2nc3ccccc3o2)c1)C(=O)O (stereo not drawn) [Example 63, 2-[3-[[N-(Benzoxazol-2-yl)-N-(3-(4-chlorophenyl)propyl)]aminomethyl]phenoxy]propionic Acid]
- EC50 (hPPARα): 2 nM
- EC50 (hPPARδ): 0.9 µM
- EC50 (hPPARγ): 100 nM

SMILES: CCCCCCCCN(CCCc1ccccc1OC(C)(C)C(=O)O)c1nc2ccccc2o1 [Example 155, 2-[2-[3-[N-(Benzoxazol-2-yl)-N-n-octyl]aminopropyl]phenoxy]-2-methylpropionic Acid]
- EC50 (hPPARα): 10 nM
- EC50 (hPPARδ): 0.3 µM
- EC50 (hPPARγ): 500 nM

SMILES: CC(C)(Oc1cccc(CN(Cc2ccc(Cl)cc2)c2nc3ccccc3o2)c1)C(=O)O [compound 1]
- EC50 (hPPARα): 10 nM
- EC50 (hPPARδ): > 10 µM
- EC50 (hPPARγ): 200 nM

SMILES: CC(C)N(CCCc1ccc(OC(C)(C)C(=O)O)cc1)c1nc2ccccc2o1 [Example 133, 2-[4-[3-[N-(Benzoxazol-2-yl)-N-isopropyl]aminopropyl]phenoxy]-2-methylpropionic Acid]
- EC50 (hPPARα): 10 nM
- EC50 (hPPARδ): 3 µM
- EC50 (hPPARγ): 300 nM

SMILES: CC(C)(Oc1ccc(CN(Cc2ccccc2[N+](=O)[O-])c2nc3ccccc3o2)cc1)C(=O)O [Example 29, 2-[4-[[N-(Benzoxazol-2-yl)-N-(2-nitrobenzyl)]aminomethyl]phenoxy]-2-methylpropionic Acid]
- EC50 (hPPARα): 100 nM
- EC50 (hPPARδ): > 10 µM
- EC50 (hPPARγ): > 10000 nM

SMILES: CN(C)c1ccc(CN(Cc2cccc(OC(C)(C)C(=O)O)c2)c2nc3ccccc3o2)cc1 [Example 41, 2-[3-[[N-(Benzoxazol-2-yl)-N-(4-dimethylaminobenzyl)]aminomethyl]phenoxy]-2-methylpropionic Acid]
- EC50 (hPPARα): 10 nM
- EC50 (hPPARδ): 1.8 µM
- EC50 (hPPARγ): 200 nM

SMILES: CCCCCCCCN(Cc1cccc(OC(C)C(=O)O)c1)c1nc2ccccc2o1 (stereo not drawn) [Example 69, 2-[3-[[N-(Benzoxazol-2-yl)-N-n-octyl]aminomethyl]phenoxy]propionic Acid]
- EC50 (hPPARα): 0.3 nM
- EC50 (hPPARδ): > 10 µM
- EC50 (hPPARγ): 200 nM

SMILES: CCC(Oc1cccc(CN(CCCc2ccccc2)c2nc3ccccc3o2)c1)C(=O)O (stereo not drawn) [Example 55, 2-[3-[[N-(Benzoxazol-2-yl)-N-(3-phenylpropyl)]aminomethyl]phenoxy]butyric Acid]
- EC50 (hPPARα): 2 nM
- EC50 (hPPARδ): 0.6 µM
- EC50 (hPPARγ): 100 nM

SMILES: CCCN(CCCc1ccc(OC(C)(C)C(=O)O)cc1)c1nc2ccccc2o1 [Example 132, 2-[4-[3-[N-(Benzoxazol-2-yl)-N-n-propyl]aminopropyl]phenoxy]-2-methylpropionic Acid]
- EC50 (hPPARα): 30 nM
- EC50 (hPPARδ): > 10 µM
- EC50 (hPPARγ): 2000 nM

SMILES: CC(C)(Oc1cccc(CN(Cc2cccc3ccccc23)c2nc3ccccc3o2)c1)C(=O)O [Example 135, 2-[3-[[N-(Benzoxazol-2-yl)-N-(naphth-1-ylmethyl)]aminomethyl]phenoxy]-2-methylpropionic Acid]
- EC50 (hPPARα): 10 nM
- EC50 (hPPARδ): > 10 µM
- EC50 (hPPARγ): > 10000 nM

SMILES: CCCCCCCCN(Cc1cccc(OC(CC)C(=O)O)c1)c1nc2ccccc2o1 (stereo not drawn) [Example 59, 2-[3-[[N-(Benzoxazol-2-yl)-N-n-octyl]aminomethyl]phenoxy]butyric Acid]
- EC50 (hPPARα): 3 nM
- EC50 (hPPARδ): > 10 µM
- EC50 (hPPARγ): 100 nM

SMILES: CCCCCCCN(Cc1cccc(OCC(=O)O)c1)c1nc2ccccc2o1 [Example 46, 3-[[N-(Benzoxazol-2-yl)-N-n-heptyl]aminomethyl]phenoxyacetic Acid]
- EC50 (hPPARα): 10 nM
- EC50 (hPPARδ): 1.1 µM
- EC50 (hPPARγ): 400 nM
